Experimental data taken from ChEMBL document CHEMBL5385933, “Preparation and Preliminary Structure-Activity Relationship Studies of Schwarzinicine A Analogs as Vasorelaxant Agents” (J Nat Prod, 2024).

How the values were obtained:
Aorta [1] = experiment: Vasorelaxant activity in Sprague-Dawley rat aortic rings assessed as reduction in phenylephrine-induced contractions by measuring maximum efficacy by organ bath assay relative to control; format: functional
Aorta [2] = experiment: Vasorelaxant activity in Sprague-Dawley rat aortic rings assessed as reduction in phenylephrine-induced contractions by organ bath assay; format: functional, tissue-based

| SMILES | Emax (Aorta [1]) [%] | EC50 (Aorta [2]) [nM] |
| --- | --- | --- |
| CCCC(Cc1ccccc1)NCCCCc1ccccc1 (centres undefined) | 127 | 2740 |
| c1ccc(CCNC2CCc3ccccc3C2)cc1 (centres undefined) | 119 | 500 |
| c1ccc(CCNC2Cc3ccccc3C2)cc1 | 113 | 200 |
| CCCC(Cc1ccccc1)NCCN1CCOCC1 (centres undefined) | 89.8 | 2740 |
| COc1ccc(CCNC(C)Cc2ccc(OC)c(OC)c2)cc1OC (centres undefined) | 104 | 2890 |
| COc1ccc(CCNC(Cc2ccccc2)Cc2ccccc2)cc1OC | 115 | 1860 |
| c1ccc(CCNC(CCc2ccccc2)Cc2ccccc2)cc1 (centres undefined) | 116 | 2300 |
| CCCC(Cc1csc2ccccc12)NCCc1ccccc1 (centres undefined) | 112 | 370 |
| CCCC(CCCCc1ccccc1)NCCc1ccccc1 (centres undefined) | 121 | 2020 |
| CCC(CCc1ccco1)NCCN1CCCCC1 (centres undefined) | 97.8 | 420 |
| CCCC(Cc1ccccc1)NC1Cc2ccccc2C1 (centres undefined) | 114 | 350 |
| CCCC(Cc1ccccc1)NC1CCCC1 (centres undefined) | 116 | 3090 |
| CCCC(Cc1ccccc1)NCCc1c[nH]cn1 (centres undefined) | 122 | 1370 |
| CCCC(Cc1ccccc1)NC1CC2CCC1C2 (centres undefined) | 106 | 480 |
| CCCC(Cc1ccc(Cl)cc1)NCCc1ccccc1 (centres undefined) | 114 | 1950 |
| CCCC(CC1CCCCC1)NCCc1ccccc1 (centres undefined) | 114 | 1840 |
| CCCC(Cc1ccccc1)NCCc1ccccc1 (centres undefined) | 113 | 3060 |
| CCCC(Cc1ccc(C)cc1)NCCc1ccccc1 (centres undefined) | 120 | 2640 |
| Fc1ccc(CCNC(CCc2ccccc2)Cc2ccc(Cl)cc2)cc1 (centres undefined) | 92.2 | 650 |

| SMILES | Emax (Aorta [1]) [%] | EC50 (Aorta [2]) [nM] |
| --- | --- | --- |
| CCCC(Cc1cccs1)NCCc1ccccc1 (centres undefined) | 110 | 410 |
| CCC(CCCCc1ccccc1)NCCc1ccccc1 (centres undefined) | 125 | 3360 |
| CCC(CCc1ccccc1)NCCc1ccccc1 (centres undefined) | 11.5 | 1240 |
| CCCC(CC1CC1)NCCc1ccccc1 (centres undefined) | 116 | 1510 |
| CCCC(Cc1ccccc1)NCCN1CCCCC1 (centres undefined) | 110 | 130 |
| CCCC(Cc1ccccc1)NCCC1=CCCCC1 (centres undefined) | 117 | 2410 |
| CN(CCc1ccccc1)C(CCc1ccccc1)Cc1ccccc1 (centres undefined) | 93.5 | 40 |
| CCCC(CC1CCCCC1)NCCN1CCCCC1 (centres undefined) | 88.4 | 220 |
| CCN(CCc1ccccc1)C(CCc1ccccc1)Cc1ccccc1 (centres undefined) | 85 | 1210 |
| CCCC(Cc1ccccc1)NCCC#N (centres undefined) | 89.5 | 1430 |
| CCCC(Cc1ccccc1)NC1CC1 (centres undefined) | 114 | 2250 |
| CCCC(Cc1ccccc1)NCCc1ccc([N+](=O)[O-])cc1 (centres undefined) | 119 | 1730 |
| CCC(CCc1ccco1)NCCc1ccccc1 (centres undefined) | 122 | 180 |
| C[N+](C)(CCc1ccccc1)C(CCc1ccccc1)Cc1ccccc1 (centres undefined) | 136 | 1970 |
| c1ccc2c(c1)CCC(NC1Cc3ccccc3C1)C2 (centres undefined) | 122 | 1320 |
| CCC(CCc1cccs1)NCCc1ccccc1 (centres undefined) | 120 | 190 |
| c1ccc(CCC(Cc2ccccc2)N(CCc2ccccc2)CCc2ccccc2)cc1 (centres undefined) | 68.9 | 1390 |
| CCCC(CC1CCCCC1)NCCC1CCCCC1 (centres undefined) | 83.6 | 320 |
| CCCCCCCC(CCC)NCCc1ccccc1 (centres undefined) | 89.7 | 1050 |

| SMILES | Emax (Aorta [1]) [%] | EC50 (Aorta [2]) [nM] |
| --- | --- | --- |
| CCCC(Cc1ccccc1)NCCc1ccc(F)cc1 (centres undefined) | 120 | 3830 |
| CCCC(Cc1ccccc1)NCCN1CCNCC1 (centres undefined) | 107 | 1040 |
| CCCC(Cc1ccc2c(c1)OCO2)NCCc1ccccc1 (centres undefined) | 113 | 1060 |
| CCC(CCc1ccco1)NCCC1CCCCC1 (centres undefined) | 106 | 2120 |
| CCCNC(CCc1ccccc1)Cc1ccccc1 (centres undefined) | 121 | 3830 |
| CCCC(Cc1ccc(C)cc1)NCCc1ccc(F)cc1 (centres undefined) | 118 | 1230 |
| CCCC(Cc1ccc(Cl)cc1)NCCc1ccc(F)cc1 (centres undefined) | 99.1 | 1090 |
| CCCC(Cc1ccc2ccccc2c1)NCCc1ccccc1 (centres undefined) | 115 | 1600 |
| CCCC(Cc1ccccc1)NCCc1c[nH]c2ccccc12 (centres undefined) | 114 | 440 |
| CCC(Cc1ccccc1)NCCc1ccccc1 (centres undefined) | 120 | 1120 |
| CCCC(Cc1ccccc1)NCCc1ccccn1 (centres undefined) | 114 | 1130 |
| CCC(CCc1ccc(C#N)cc1)NCCc1ccccc1 (centres undefined) | 125 | 1960 |
| CCCC(Cc1ccccc1)NCCc1ccc(OC)cc1 (centres undefined) | 114 | 1280 |
| c1ccc(CCC(Cc2ccccc2)N(CCc2ccccc2)CC2CC2)cc1 (centres undefined) | 75.4 | 140 |
| CCCC(CC1CCCCC1)NCCC1=CCCCC1 (centres undefined) | 84.7 | 1000 |
| COc1ccc(CCC(Cc2ccc(OC)c(OC)c2)NCCc2ccc(OC)c(OC)c2)cc1 (centres undefined) | 122 | 2990 |
| CC(=O)N(CCc1ccccc1)C(CCc1ccccc1)Cc1ccccc1 (centres undefined) | 82.9 | 20300 |
| CCCC(Cc1ccccc1)NCCc1ccc(O)cc1 (centres undefined) | 111 | 49 |
| CCCC(Cc1ccccc1)NCCc1cccs1 (centres undefined) | 134 | 3500 |
